Assay results taken from ChEMBL document CHEMBL1136749, “Central neural tumor destruction by controlled release of a synthetic glycoside dispersed in a biodegradable polymeric matrix” (J Med Chem, 2003).

System: U373 MG
Test: Antimitotic activity against human glioma line U-373 cell by measuring the incorporation of [3H]thymidine in cultures of the cells
Assay type: functional, cell-based, U-373MG ATCC

IC50: 43 µM
SMILES: CCCCCCCCO[C@H]1O[C@@H](COCC(CO)(CO)CO)[C@@H](O)[C@H](O)[C@@H]1NC(C)=O
